The values that follow are results of earlier work, collected in US7273889B2, “NMDA receptor antagonist formulation with reduced neurotoxicity” (Innovative Drug Delivery Systems, Inc., priority 2002, dated 2007).

For one data set, the system named is patients. As to conditions: use as an anesthetic agent.
Data set [1] has as its system spinal cord of the animals. To be noted: multiple dose, intrathecally administered.
For data set [2] the following is noted: at a pH up to 10.

Counter-ions that a name gives are not always drawn.

For `CNC1(c2ccccc2Cl)CCCCC1=O` (stereo not drawn) [ketamine hydrochloride], the “occurrence of postoperative confusional states (emergence reactions)” value with patients is “approximately 12% of patients”.

Regarding `CNC1(c2ccccc2Cl)CCCCC1=O` (stereo not drawn) [preservative-free ketamine, ketamine], in data set [1], the neurotoxic effect result was “without neurotoxic effect”. As to benzalkonium chloride, the stability entry in data set [2] is reported as “stable at room temperature”.
